From patent US11774396B2, “Systems and methods for patterning and spatial electrochemical mapping of cells” (President and Fellows of Harvard College, priority 2020, dated 2023)

Columns and labels:
[1] = test system: MDCK cells
Excerpt: This example describes a method using cross-electrode impedance mapping to quantify cell adhesion.
Ethylenediaminetetraacetic acid (EDTA) is applied to the cells. EDTA is a calcium chelator that removes Ca^2+ needed for integrin proteins to maintain cell adhesion.
FIG. 6b is a data plot showing mean normalized impedances for different regions of the cell culture over time as specified in the map 601. FIG. 6cc are histograms of the normalized impedance values before, during, and after a washout of EDTA across the array.

[2] = test system: MDCK cells; assay: Wound healing assay: electrochemical patterning and impedance mapping of regrowth; assay type: cell-based, Canine; conditions: 1 μM, over the course of 72 hours; control culture took ~3 days to fill in the wound
Excerpt: This example describes a combined application of both the cross-electrode impedance mapping and cell patterning is a wound healing assay.
These assays gauge cell growth rate and metabolism and can be useful for screening drugs affecting these parameters. Compared to the electrochemical patterning described herein, other tools mechanically generate a wound in a cell culture via a mechanical scratch which is both difficult to control and limiting in terms of wound pattern.
In this example, a wound is made in MDCK cells and then the growth is mapped in real-time. […] These patterns were defined by applying electrode currents of −10 nA for 40 s versus a Ag/AgCl pseudo reference electrode. The regrowth of the culture was then measured using the impedance mapping method.

With O=C(O)CN(CCN(CC(=O)O)CC(=O)O)CC(=O)O [EDTA, Ethylenediaminetetraacetic acid] the “time course over which the cells detach with EDTA applied” value ([1]; 5 mM EDTA application at t=~5 min) was roughly 50 min and the “time course over which the cells re-attach after EDTA washout” value ([1]; EDTA washed out by adding normal culture media) was roughly 200 min.

In the case of C=C1[C@@H](C)[C@H]2[C@H](Cc3ccccc3)NC(=O)[C@]23OC(=O)/C=C/[C@H](O)CCC[C@@H](C)C/C=C/[C@H]3[C@@H]1O [cytochalasin B], the “regrowth of the wound in the cell culture (normalized cross-electrode impedance maps)” value [2] is reported as “very little growth”.
